Test results taken from patent US20120065267A1, “COMPOSITIONS INCLUDING 3,5-L-T2 AND METHODS OF USE THEREOF” (priority 2010, published 2012).
Values joined by “and” are separate entries in the source; they are usually repeats but may differ in a detail not shown here. Equal values may be shown once.

Test: Body weight of mice on Western Diet given low or high dose T2
Type: in vivo
Description: This corresponds to a dosage for an 80 kg human of about 20-200 mg/day, or a low dose of about 0.2-0.3 mg/kg of body weight to a high dose of about 2-3 mg/kg of body weight. One will appreciate, however, that some subjects (e.g., subjects having very low LDL receptor function) may receive higher doses, depending on need. likewise, some subjects may receive lower doses, which again depends on need. Mice in the study were fed a standard lab chow referred to as the “Western Diet.” The overall level of fat and the saturated nature of the fat are representative diets typical in the industrialized west that are linked to risk of cardiovascular disease in humans. The formula is used primarily with genetically manipulated rodent models that are susceptible to high cholesterol and cardiovascular disease. The diet may also be useful in diet-induced obesity, diabetes, and metabolic syndrome models. High cholesterol, obesity, and diabetes are each associated increased risk for cardiovascular disease. The composition of the Western Diet is shown below. C57 is a wild-type strain, LDLr+/− are a strain carrying one functional copy of the LDLr gene, and the LDLr0 animals are total LDLr knockouts. The LDLr gene encodes for the LDL receptor protein, which is responsible for scavenging LDL with bound cholesterol from the blood and transporting it into cells. Both heterozygous and homozygous LDLr knockout animals develop very high serum cholesterol levels and are considered to be a good model for heterozygous and homozygous familial hypercholesterolemia in humans. […] LDLr knockout animals have zero LDL receptor function.

SMILES: N[C@@H](Cc1cc(I)c(Oc2ccc(O)cc2)c(I)c1)C(=O)O [T2, (2S)-2-amino-3-[4-(4-hydroxyphenoxy)-3,5-diiodophenyl]propanoic acid]
- Body weight (Ave) (C57 mice, High Dose T2 2.5 mg/kg daily oral, Day 1, group average): 28.1 g
- Body weight (C57 mice, High Dose T2 2.5 mg/kg daily oral, Day 1, individual animal, 2.5 mg/kg): 29.6 (2×) and 24.9 and 29.8 and 26.7
- Body weight (Ave) (C57 mice, High Dose T2 2.5 mg/kg daily oral, Day 2, group average): 28.4 g
- Body weight (C57 mice, High Dose T2 2.5 mg/kg daily oral, Day 2, individual animal, 2.5 mg/kg, in g (unit assumed)): 29.5 and 30.1 and 25.8 and 29.7 and 27.1
- Body weight (Ave) (C57 mice, High Dose T2 2.5 mg/kg daily oral, Day 3, group average): 28.4 g
- Body weight (C57 mice, High Dose T2 2.5 mg/kg daily oral, Day 3, individual animal, 2.5 mg/kg, in g (unit assumed)): 29.8 and 30.0 and 25.1 and 29.9 and 27.2
- Body weight (Ave) (C57 mice, High Dose T2 2.5 mg/kg daily oral, Day 4, group average): 27.4 g
- Body weight (C57 mice, High Dose T2 2.5 mg/kg daily oral, Day 4, individual animal, 2.5 mg/kg, in g (unit assumed)): 29.1 and 28.7 and 23.4 and 28.8 and 27
- Body weight (Ave) (C57 mice, High Dose T2 2.5 mg/kg daily oral, Day 5, group average): 27.7 g
- Body weight (C57 mice, High Dose T2 2.5 mg/kg daily oral, Day 5, individual animal, 2.5 mg/kg, in g (unit assumed)): 29.7 and 29.1 and 24.1 and 28.5 and 27.3
- Body weight (Ave) (C57 mice, Low Dose T2 0.25 mg/kg daily oral, Day 1, group average): 25.2 g
- Body weight (C57 mice, Low Dose T2 0.25 mg/kg daily oral, Day 1, individual animal, 0.25 mg/kg, in g (unit assumed)): 26.5 and 27.0 and 23.0 and 26.4 and 24.0 and 24.1
- Body weight (Ave) (C57 mice, Low Dose T2 0.25 mg/kg daily oral, Day 2, group average): 26.1 g
- Body weight (C57 mice, Low Dose T2 0.25 mg/kg daily oral, Day 2, individual animal, 0.25 mg/kg, in g (unit assumed)): 28.2 and 27.7 and 24.1 and 26.3 and 25.5 and 24.9
- Body weight (Ave) (C57 mice, Low Dose T2 0.25 mg/kg daily oral, Day 3, group average): 26.5 g
- Body weight (C57 mice, Low Dose T2 0.25 mg/kg daily oral, Day 3, individual animal, 0.25 mg/kg, in g (unit assumed)): 28.3 and 27.8 and 23.3 and 27.9 and 26.2 and 25.6
- Body weight (Ave) (C57 mice, Low Dose T2 0.25 mg/kg daily oral, Day 4, group average): 25.8 g
- Body weight (C57 mice, Low Dose T2 0.25 mg/kg daily oral, Day 4, individual animal, 0.25 mg/kg, in g (unit assumed)): 26.8 and 27.2 and 23.7 and 26.7 and 25.1 and 25.4
- Body weight (Ave) (C57 mice, Low Dose T2 0.25 mg/kg daily oral, Day 5, group average): 26.8 g
- Body weight (C57 mice, Low Dose T2 0.25 mg/kg daily oral, Day 5, individual animal, 0.25 mg/kg, in g (unit assumed)): 27.3 and 28.3 and 24.5 and 27.5 and 26.4
- Body weight (Ave) (C57 mice, Low Dose T2 0.25 mg/kg daily oral, Day 6, group average): 27.5 g
- Body weight (C57 mice, Low Dose T2 0.25 mg/kg daily oral, Day 6, individual animal, 0.25 mg/kg, in g (unit assumed)): 28.1 and 29.9 and 24.8 and 28.7 and 26.1
- Body weight (Ave) (C57 mice, Low Dose T2 0.25 mg/kg daily oral, Day 7, group average): 28.3 g
- Body weight (C57 mice, Low Dose T2 0.25 mg/kg daily oral, Day 7, individual animal, 0.25 mg/kg, in g (unit assumed)): 29.5 and 30.7 and 26.2 and 29.0 and 26.1
- Body weight (Ave) (LDLr0 mice, High Dose T2 2.5 mg/kg daily oral, Day 1, group average): 25.7 g
- Body weight (LDLr0 mice, High Dose T2 2.5 mg/kg daily oral, Day 1, individual animal, 2.5 mg/kg, in g (unit assumed)): 23.9 and 27.4
- Body weight (Ave) (LDLr0 mice, High Dose T2 2.5 mg/kg daily oral, Day 2, group average): 24 g
- Body weight (LDLr0 mice, High Dose T2 2.5 mg/kg daily oral, Day 2, individual animal, 2.5 mg/kg, in g (unit assumed)): 23.1 and 24.8
- Body weight (Ave) (LDLr0 mice, High Dose T2 2.5 mg/kg daily oral, Day 3, group average): 23.9 g
- Body weight (LDLr0 mice, High Dose T2 2.5 mg/kg daily oral, Day 3, individual animal, 2.5 mg/kg, in g (unit assumed)): 22.8 and 24.9
- Body weight (Ave) (LDLr0 mice, High Dose T2 2.5 mg/kg daily oral, Day 4, group average): 24.2 g
- Body weight (LDLr0 mice, High Dose T2 2.5 mg/kg daily oral, Day 4, individual animal, 2.5 mg/kg, in g (unit assumed)): 23.5 and 24.8
- Body weight (Ave) (LDLr0 mice, High Dose T2 2.5 mg/kg daily oral, Day 5, group average): 24.2 g
- Body weight (LDLr0 mice, High Dose T2 2.5 mg/kg daily oral, Day 5, individual animal, 2.5 mg/kg, in g (unit assumed)): 23.1 and 25.3
- Body weight (Ave) (LDLr0 mice, Low Dose T2 0.25 mg/kg daily oral, Day 1, group average): 22.3 g
- Body weight (LDLr0 mice, Low Dose T2 0.25 mg/kg daily oral, Day 1, individual animal, 0.25 mg/kg, in g (unit assumed)): 23.1 and 21.1 and 22.7 and 22.1
- Body weight (Ave) (LDLr0 mice, Low Dose T2 0.25 mg/kg daily oral, Day 2, group average): 22.8 g
- Body weight (LDLr0 mice, Low Dose T2 0.25 mg/kg daily oral, Day 2, individual animal, 0.25 mg/kg, in g (unit assumed)): 21.6 and 23.6 and 23.2
- Body weight (Ave) (LDLr0 mice, Low Dose T2 0.25 mg/kg daily oral, Day 3, group average): 23.4 g
- Body weight (LDLr0 mice, Low Dose T2 0.25 mg/kg daily oral, Day 3, individual animal, 0.25 mg/kg, in g (unit assumed)): 22.3 and 24.4 and 23.5
- Body weight (Ave) (LDLr0 mice, Low Dose T2 0.25 mg/kg daily oral, Day 4, group average): 22.3 g
- Body weight (LDLr0 mice, Low Dose T2 0.25 mg/kg daily oral, Day 4, individual animal, 0.25 mg/kg, in g (unit assumed)): 21.2 and 22.9 and 22.8
- Body weight (Ave) (LDLr0 mice, Low Dose T2 0.25 mg/kg daily oral, Day 5, group average): 22.4 g
- Body weight (LDLr0 mice, Low Dose T2 0.25 mg/kg daily oral, Day 5, individual animal, 0.25 mg/kg, in g (unit assumed)): 22.0 and 22.2 and 23.0
- Body weight (Ave) (LDLr0 mice, Low Dose T2 0.25 mg/kg daily oral, Day 6, group average): 22.3 g
- Body weight (LDLr0 mice, Low Dose T2 0.25 mg/kg daily oral, Day 6, individual animal, 0.25 mg/kg, in g (unit assumed)): 22.1 and 21.7 and 23.1
- Body weight (Ave) (LDLr0 mice, Low Dose T2 0.25 mg/kg daily oral, Day 7, group average): 22.2 g
- Body weight (LDLr0 mice, Low Dose T2 0.25 mg/kg daily oral, Day 7, individual animal, 0.25 mg/kg, in g (unit assumed)): 22.4 and 20.6 and 23.6
- Body weight (Ave) (LDLr+/− mice, High Dose T2 2.5 mg/kg daily oral, Day 1, group average): 30.8 g
- Body weight (LDLr+/− mice, High Dose T2 2.5 mg/kg daily oral, Day 1, individual animal, 2.5 mg/kg, in g (unit assumed)): 32.8 and 31.8 and 29.8 and 31.4 and 29.2 and 29.6
- Body weight (Ave) (LDLr+/− mice, High Dose T2 2.5 mg/kg daily oral, Day 2, group average): 31.3 g
- Body weight (LDLr+/− mice, High Dose T2 2.5 mg/kg daily oral, Day 2, individual animal, 2.5 mg/kg, in g (unit assumed)): 33.3 and 34.5 and 29.8 and 31.0 and 29.1 and 29.9
- Body weight (Ave) (LDLr+/− mice, High Dose T2 2.5 mg/kg daily oral, Day 3, group average): 31.1 g
- Body weight (LDLr+/− mice, High Dose T2 2.5 mg/kg daily oral, Day 3, individual animal, 2.5 mg/kg): 33.1 and 33.9 and 29.8 (2×) and 30.9 and 29.3
- Body weight (Ave) (LDLr+/− mice, High Dose T2 2.5 mg/kg daily oral, Day 4, group average): 29.8 g
- Body weight (LDLr+/− mice, High Dose T2 2.5 mg/kg daily oral, Day 4, individual animal, 2.5 mg/kg, in g (unit assumed)): 32.1 and 33.0 and 29.0 and 30.1 and 27.9 and 26.8
- Body weight (Ave) (LDLr+/− mice, High Dose T2 2.5 mg/kg daily oral, Day 5, group average): 29.7 g
- Body weight (LDLr+/− mice, High Dose T2 2.5 mg/kg daily oral, Day 5, individual animal, 2.5 mg/kg, in g (unit assumed)): 32.3 and 32.9 and 28.9 and 30.4 and 27.6 and 26.3
